Reference: patent US6737383B1, “Herbicidal oxadiazolidines” (priority 1999, dated 2004)

Columns and labels:
[1] = test system: rape; test: Test B pre/postemergence rape; type: in vivo, Brassica napus
Method in brief: (§1)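 Response is a visual 0-to-10 score relative to untreated plants, where 0 means no effect and 10 means complete control, taken twelve to sixteen days after application. Treatments went onto soil at planting and onto foliage of 1- to 4-leaf plants, using a surfactant-containing non-phytotoxic solvent.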

[2] = test system: blackgrass; test: Test B pre/postemergence blackgrass; type: in vivo, Alopecurus myosuroides
Method in brief: as §1

[3] = test system: smallflower flatsedge; test: Test B flood test smallflower flatsedge; type: in vivo, Cyperus difformis
Method in brief: (§2)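 Each value is a visual injury score relative to controls, with 10 meaning complete control and 0 no effect. Evaluation took place twelve to sixteen days after the 2-leaf-stage plants were treated and kept in the greenhouse.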

[4] = test system: bedstraw; test: Test B pre/postemergence bedstraw; type: in vivo, Galium aparine
Method in brief: as §1

[5] = test system: rice; test: Test B flood test rice; type: in vivo, Oryza sativa
Method in brief: as §2

[6] = test system: surinam grass; test: Test B pre/postemergence surinam grass; type: in vivo, Brachiaria decumbens
Method in brief: as §1

[7] = test system: crabgrass; test: Test B pre/postemergence crabgrass; type: in vivo, Digitaria sanguinalis
Method in brief: as §1

[8] = test system: pigweed; test: Test B pre/postemergence pigweed; type: in vivo, Amaranthus retroflexus
Method in brief: as §1

[9] = test system: velvetleaf; test: Test B pre/postemergence velvetleaf; type: in vivo, Abutilon theophrasti
Method in brief: as §1

[10] = test system: sugar beet; test: Test B pre/postemergence sugar beet; type: in vivo, Beta vulgaris
Method in brief: as §1

[11] = test system: corn; test: Test B pre/postemergence corn; type: in vivo, Zea mays
Method in brief: as §1

[12] = test system: wheat; test: Test B pre/postemergence wheat; type: in vivo, Triticum aestivum
Method in brief: as §1

[13] = test system: wild oat; test: Test B pre/postemergence wild oat; type: in vivo, Avena fatua
Method in brief: as §1

[14] = test system: purple nutsedge; test: Test B pre/postemergence purple nutsedge; type: in vivo, Cyperus rotundus
Method in brief: as §1

[15] = test system: duck salad; test: Test B flood test duck salad; type: in vivo, Heteranthera limosa
Method in brief: as §2

[16] = test system: soybean; test: Test B pre/postemergence soybean; type: in vivo, Glycine max
Method in brief: as §1

[17] = Postemergence, Rate 62 g/ha, scale 0 to 10, 0 is no effect, 10 is complete control
[18] = Postemergence, Rate 250 g/ha, scale 0 to 10, 0 no effect, 10 complete control
[19] = Preemergence, Rate 62 g/ha, scale 0 to 10, 0 is no effect, 10 is complete control
[20] = Preemergence, Rate 125 g/ha, scale 0 to 10 (0 no effect, 10 complete control)
[21] = Preemergence, Rate 250 g/ha, scale of 0 to 10 where 0 is no effect and 10 is complete control
[22] = Preemergence, Rate 500 g/ha, scale 0 (no effect) to 10 (complete control)
[23] = Rate 125 g/ha, Postemergence, scale 0 to 10, 0 no effect, 10 complete control
[24] = Rate 500 g/ha, Postemergence, 0 to 10 scale (0 no effect, 10 complete control)
[25] = Rate 125 g/ha, Postemergence section (flood test species), scale 0 to 10, 0 no effect, 10 complete control
[26] = flood test, listed under Postemergence, Rate 250 g/ha, scale 0 to 10, 0 no effect, 10 complete control
[27] = Rate 500 g/ha, Postemergence section of Table B, 0 to 10 scale (0 no effect, 10 complete control)

## Cc1ccccc1-n1c(=O)on(C(=O)N(C2=CCOCC2)C(C)C)c1=O [Compound 10]
[1]; [17]
  Rape plant response rating: 0
[1]; [18]
  Rape plant response rating: 0
[1]; [19]
  Plant response rating, Rape: 0
[1]; [20]
  Plant response rating, Rape: 0
[1]; [21]
  Plant response rating, Rape: 0
[1]; [22]
  Rape plant response rating: 0
[1]; [23]
  Rape plant response rating: 0
[1]; [24]
  Rape plant response rating: 0
[2]; [17]
  Blackgrass plant response rating: 0
[2]; [18]
  Blackgrass plant response rating: 4
[2]; [19]
  Plant response rating, Blackgrass: 1
[2]; [20]
  Plant response rating, Blackgrass: 4
[2]; [21]
  Plant response rating, Blackgrass: 8
[2]; [22]
  Blackgrass plant response rating: 9
[2]; [23]
  Blackgrass plant response rating: 0
[2]; [24]
  Blackgrass plant response rating: 7
[3]; [17]
  S. Flatsedge plant response rating: 0
[3]; [25]
  S. Flatsedge plant response rating: 0
[3]; [26]
  S. Flatsedge plant response rating: 0
[4]; [17]
  Bedstraw plant response rating: 0
[4]; [18]
  Bedstraw plant response rating: 0
[4]; [19]
  Plant response rating, Bedstraw: 0
[4]; [20]
  Plant response rating, Bedstraw: 0
[4]; [21]
  Plant response rating, Bedstraw: 0
[4]; [22]
  Bedstraw plant response rating: 0
[4]; [23]
  Bedstraw plant response rating: 0
[4]; [24]
  Bedstraw plant response rating: 0
[5]; [17]
  Rice plant response rating: 0
[5]; [25]
  Rice plant response rating: 0
[5]; [27]
  Rice plant response rating: 0
[5]; [26]
  Rice plant response rating: 0
[6]; [17]
  B. signalgrass plant response rating: 0
[6]; [18]
  B. signalgrass plant response rating: 4
[6]; [19]
  Plant response rating, B. signalgrass: 0
[6]; [20]
  Plant response rating, B. signalgrass: 5
[6]; [21]
  Plant response rating, B. signalgrass: 8
[6]; [22]
  B. signalgrass plant response rating: 8
[6]; [23]
  B. signalgrass plant response rating: 0
[6]; [24]
  B. signalgrass plant response rating: 4
[7]; [17]
  Crabgrass plant response rating: 3
[7]; [18]
  Crabgrass plant response rating: 9
[7]; [19]
  Plant response rating, Crabgrass: 2
[7]; [20]
  Plant response rating, Crabgrass: 7
[7]; [22]
  Crabgrass plant response rating: 7
[7]; [23]
  Crabgrass plant response rating: 6
[7]; [24]
  Crabgrass plant response rating: 9
[8]; [17]
  Redroot pigweed plant response rating: 0
[8]; [18]
  Redroot pigweed plant response rating: 0
[8]; [19]
  Plant response rating, Redroot pigweed: 0
[8]; [20]
  Plant response rating, Redroot pigweed: 0
[8]; [21]
  Plant response rating, Redroot pigweed: 0
[8]; [22]
  Redroot pigweed plant response rating: 0
[8]; [23]
  Redroot pigweed plant response rating: 0
[8]; [24]
  Redroot pigweed plant response rating: 0
[9]; [17]
  Velvetleaf plant response rating: 0
[9]; [18]
  Velvetleaf plant response rating: 0
[9]; [19]
  Plant response rating, Velvetleaf: 0
[9]; [20]
  Plant response rating, Velvetleaf: 0
[9]; [21]
  Plant response rating, Velvetleaf: 0
[9]; [22]
  Velvetleaf plant response rating: 0
[9]; [23]
  Velvetleaf plant response rating: 0
[10]; [17]
  Sugarbeets plant response rating: 0
[10]; [18]
  Sugarbeets plant response rating: 0
[10]; [19]
  Plant response rating, Sugarbeets: 0
[10]; [20]
  Plant response rating, Sugarbeets: 0
[10]; [21]
  Plant response rating, Sugarbeets: 0
[10]; [22]
  Sugarbeets plant response rating: 0
[10]; [23]
  Sugarbeets plant response rating: 0
[11]; [17]
  Corn plant response rating: 0
[11]; [18]
  Corn plant response rating: 0
[11]; [19]
  Plant response rating, Corn: 0
[11]; [20]
  Plant response rating, Corn: 0
[11]; [21]
  Plant response rating, Corn: 0
[11]; [22]
  Corn plant response rating: 4
[11]; [23]
  Corn plant response rating: 0
[11]; [24]
  Corn plant response rating: 2
[12]; [17]
  Wheat plant response rating: 0
[12]; [18]
  Wheat plant response rating: 0
[12]; [19]
  Plant response rating, Wheat: 0
[12]; [20]
  Plant response rating, Wheat: 0
[12]; [21]
  Plant response rating, Wheat: 0
[12]; [22]
  Wheat plant response rating: 0
[12]; [23]
  Wheat plant response rating: 0
[13]; [17]
  Wild oats plant response rating: 0
[13]; [18]
  Wild oats plant response rating: 0
[13]; [20]
  Plant response rating, Wild oats: 0
[13]; [21]
  Plant response rating, Wild oats: 0
[13]; [22]
  Wild oats plant response rating: 0
[13]; [23]
  Wild oats plant response rating: 0
[14]; [17]
  Nutsedge plant response rating: 0
[14]; [18]
  Nutsedge plant response rating: 0
[14]; [19]
  Plant response rating, Nutsedge: 0
[14]; [20]
  Plant response rating, Nutsedge: 0
[14]; [21]
  Plant response rating, Nutsedge: 0
[14]; [22]
  Nutsedge plant response rating: 0
[14]; [23]
  Nutsedge plant response rating: 0
[14]; [24]
  Nutsedge plant response rating: 0
[15]; [17]
  Ducksalad plant response rating: 0
[15]; [25]
  Ducksalad plant response rating: 0
[15]; [27]
  Ducksalad plant response rating: 0
[15]; [26]
  Ducksalad plant response rating: 0
[16]; [17]
  Soybean plant response rating: 3
[16]; [18]
  Soybean plant response rating: 3
[16]; [19]
  Plant response rating, Soybean: 0
[16]; [20]
  Plant response rating, Soybean: 0
[16]; [21]
  Plant response rating, Soybean: 0
[16]; [22]
  Soybean plant response rating: 0
[16]; [23]
  Soybean plant response rating: 3
